Source: US5451518A, “Purified human ceramide-activated protein kinase” (Sloan-Kettering Institute for Cancer Research, priority 1992, dated 1995)
“Also recorded” adds a separate entry of the source.

Experiments:
EL-4 cells [1] = assay: Sphingomyelin levels in intact EL-4 cells; format: cell-based, murine
Experimental: (§1) Time course (FIG. 12A) and dose response (FIG. 12B). Cells were grown to growth arrest (1-1.5×10^6 cells ml^-1) in DME/Ham's F12 medium (1:1, v/v) containing 10% horse serum and for 48 hours [^3 H]choline (1 μCi ml^-1). On the day of an experiment, cells were resuspended back into the same medium at 10×10^6 cells ml^-1 and stimulated with 40 ng ml^-1 IL-1β for the indicated times (FIG. 12A) or for 30 minutes with increasing concentrations of IL-1β (FIG. 12B). Human IL-1β may be obtained using methods well knownto those skilled in the art. Reactions were terminated with CHCl3 :CH3 OH:HCl (100:100:1) containing 10 mM EDTA (82). Lipids in the organic phase extract were dried under N2 and subjected to mild alkaline hydrolysis (0.1M methanolic KOH for 1 hour at 37° C.) to remove glycerophospholipids. Spingomyelin was resolved by thin-layer chromatography (TLC) using CHCl3 :CH3 OH:CH3 COOH:H2 O (60:30:8:5) as solvent, identified by iodine vapor staining, and quantified by liquid scintillation spectrometry. As previously reported, the use of [^3 H]choline as a measure of sphingomyelin content was validated by simultaneous phospholipid phosphorus measurements (62). Each value represents the mean ± SEM of triplicate determinations from four experiments in (FIG. 12A), and one representative of four similar studies performed in triplicate in (FIG. 12B).
The murine thymoma EL-4 cell line is a well-defined IL-1 responsive cell line that expresses functional IL-1 receptors (61, 62). Upon stimulation with IL-1, these cells up-regulate the IL-2 receptor and secrete IL-2 (62). Initial studies were designed to investigate the effects of IL-1β on cellular sphingomyelin content. Cells, grown in Dulbecco's Modified Eagle's (DME)/Ham's F-12 medium containing 10% horse serum and [^3 H]choline (1 μCi ml^-1), were resuspended back into the same medium at 10×10^6 cells ml^-1 and stimulated with IL-1β. IL-1β is commercially available.

EL-4 cells [2] = assay: Ceramide levels in intact EL-4 cells; format: cell-based, murine
Experimental: as §1
Cells were stimulated as in FIGS. 12A and 12B with IL-1β (40 ng ml^-1) and ceramide contained within the organic phase extract quantified enzymatically using the E. coli diacylglycerol kinase reaction (57). Lipids were resolved by TLC using CHCl3 :CH3 OH:CH3 COOH (65/15/5) as solvent, autoradiographed and quantified by liquid scintillation spectrometry. Each value represents the mean ± SEM of triplicate determinations from 10 experiments.

[3] = test system: ceramide-activated protein kinase
Experimental: Homogenates were centrifuged at 500×g for 5 minutes to remove nuclei and at 200,000×g for 30 minutes to prepare microsomal membranes. Membranes were resuspended into homogenizing buffer (2.2 μg membrane protein μl^-1). For assay of kinase activity, the reaction mixture contained 20 μl of microsomal membrane, 40 μl EGFR peptide (4 mg ml^-1 in 25 mM Hepes, pH 7.4) and 100 μl buffer (50 mM HEPES, pH 7.4, 20 mM MgCl2) (40). Phosphorylation was initiated at 22° C. by addition of 40 μl [γ-^32 P] ATP (100 μM final concentration) and terminated at the indicated times by addition of 40 μl of 0.5M ATP in 90% formic acid. Phosphorylated peptide was eluted from a C18 Sep pak cartridge (Millipore), lyophilized, and resolved by C18 reverse phase HPLC using a linear gradient of acetonitrile. […] All assays were performed under conditions determined as linear for time and enzyme concentration. Enzyme activity was determined from the percent conversion of substrate to product and the specific radioactivity of [γ-^32 P] ATP. […] Values (mean ± range) represent duplicate determinations from two experiments.
Activity was measured by the transfer of ^32 P from the γ-position of ATP to EGFR peptide (AA 663-681 of the EGFR). The effect of IL-1β on kinase activity was determined using microsomal membranes derived from cells stimulated with IL-1β.

[4] = test system: sphingomyelin (EL-4 nuclei-free supernate); assay: Sphingomyelin levels in EL-4 cell-free system; format: biochemical, murine; details: IL-1β, n=10, p<0.005 vs. control
Experimental: (§2) Thereafter, supernates (300 μg incubation^-1 in 25 μl ) were added to a reaction mixture (total volume 250 μl ) as described in FIG. 14. For studies measuring lipid levels, incubations were stopped by extraction of lipids into an organic phase and resolved as described in FIGS. 12A, 12B and 13. For studies measuring kinase activity, incubations contained EGFR peptide and [^32 P]ATP, and phosphorylated peptide was quantified as described in FIG. 14. Background activity was subtracted from each point. Values (mean) represent data from two experiments for sphingomyelin performed in triplicate, three experiments for ceramide performed in triplicate, and five experiments for ceramide-activated protein kinase activity performed in duplicate.
(§3) Early kinetics of activation of a potential signaling system provide some support that the pathway might be involved in the signaling process. However, signal transduction pathways are highly regulated and often interrelated (70). […] To provide additional support for tight coupling of the sphingomyelin pathway to activation of the IL-1β receptor, studies were performed with subcellular fractions derived from EL-4 cells. […] These effects were quantitatively similar to those determined in the intact cells.

[5] = test system: ceramide (EL-4 nuclei-free supernate); assay: Ceramide levels in EL-4 cell-free system; format: biochemical, murine; details: IL-1β, n=6, p<0.005 vs. control
Experimental: as §2, §3

[6] = test system: ceramide-activated protein kinase; assay: Ceramide-activated protein kinase activity in EL-4 cell-free system; format: biochemical, murine; details: IL-1β
Experimental: as §2, §3

[7] = test system: proline-directed protein kinase activities other than ceramide-activated protein; assay: Cytosolic kinase activity toward EGFR peptide in EL-4 cells; format: cell-based, murine
protein kinase C = assay: Protein kinase C activity by phosphorylation of lysine-rich histone in EL-4 cells; format: cell-based, murine; details: membrane and cytosolic fractions
EL-4 cells [8] = assay: Phosphatidylcholine content in EL-4 cells; format: cell-based, murine; details: IL-1β
[9] = test system: human natural killer-like cell line, YT; assay: Ceramide generation in YT cells; format: cell-based; details: preliminary studies
EL4 cells = details: 24 h

IL-1β: Human IL-1β
sphingomyelin content after IL-1β (EL-4 cells [1]; 40 ng ml^-1, 30 minutes, baseline 800±14, mean ± SEM, p<0.005): 648±16 pmol 10^6 cells^-1 | time at which sphingomyelin reduction was detectable (EL-4 cells [1]; IL-1β 40 ng ml^-1): ≤ 2 min | concentration for maximal effect, sphingomyelin (EL-4 cells [1]; IL-1β, 30 minutes): 10 ng/mL | effective concentration, sphingomyelin (EL-4 cells [1]; IL-1β, 30 minutes): 0.01 ng/mL | effective dose (ED50), sphingomyelin hydrolysis (EL-4 cells [1]; IL-1β, 30 minutes): ≈ 2 ng ml^-1 | effect on sphingomyelin (in words) (EL-4 cells [1]; intact EL-4): rapid reduction in sphingomyelin | ceramide response (in words) (EL-4 cells [2]; EL-4, maximally effective concentrations (n=5), SMase 1×10^-3 U ml^-1): elevation in ceramide levels | ceramide content (EL-4 cells [2]; IL-1β, 2 minutes, from 360, p<0.005): 403 pmol 10^6 cells^-1 | maximum ceramide content (EL-4 cells [2]; IL-1β, 15 minutes, from 360): 450 pmol 10^6 cells^-1 | time at which increase in ceramide content was evident (EL-4 cells [2]; IL-1β, n=4): ≤ 30 s | kinase activity after IL-1β ([3]; 10 ng ml^-1, 2 minutes, from 5): 11 pmol per minute per milligram (pmol min^-1 mg^-1) | concentration for maximal effect, kinase activity ([3]; IL-1β): 10 ng/mL | effective concentration, kinase activity ([3]; IL-1β): 0.03 ng/mL | effective dose (ED50), kinase activity ([3]; IL-1β): ≈ 2 ng ml^-1 | time at which increase in kinase activity was detectable ([3]; IL-1β 10 ng ml^-1): 30 s | increase in kinase activity ([3]; IL-1β 10 ng ml^-1, 2 minutes): 2.1 -fold of control | time to maximal kinase activity ([3]; IL-1β 10 ng ml^-1, p<0.005): 2 min | reduction in sphingomyelin content (in words) [4]: rapid reduction in sphingomyelin content; also recorded: detected at i minute | increase in ceramide content (in words) [5]: quantitative increase in ceramide content; also recorded: detected at i minute | ceramide-activated protein kinase activity (in words) [6]: Ceramide-activated protein kinase activity also increased | cytosolic kinase activity (in words) [7]: not enhanced | protein kinase C activity (in words) (protein kinase C): not enhanced in either membrane or cytosolic fractions | phosphatidylcholine content (EL-4 cells [8]): unchanged | generation of ceramide in YT cells [9]: induces rapid generation of ceramide | IL-2 secretion in combination with TPA (in words) (EL4 cells): stimulated secretion maximally | IL-2 secretion, ±TPA (EL4 cells; Table I, TPA 20 ng ml^-1, mean ± range, nd = not detectable): 261 ± 2
